Laboratory results reported in PMC12483982, “MTS1 regulates rice plant architecture by mediating phosphoinositide metabolism” (Plant Biotechnology Journal, 2025).

Target: T1, NGR5 (GST-NGR5) (Oryza sativa, UniProt X5HYT8)
T1 construct: gene SMOS1; recombinant GST fusion from E. coli Rosetta (DE3), glutathione sepharose, GST tag kept; NT-647 NHS labelled
T1 sequence (X5HYT8 1-425): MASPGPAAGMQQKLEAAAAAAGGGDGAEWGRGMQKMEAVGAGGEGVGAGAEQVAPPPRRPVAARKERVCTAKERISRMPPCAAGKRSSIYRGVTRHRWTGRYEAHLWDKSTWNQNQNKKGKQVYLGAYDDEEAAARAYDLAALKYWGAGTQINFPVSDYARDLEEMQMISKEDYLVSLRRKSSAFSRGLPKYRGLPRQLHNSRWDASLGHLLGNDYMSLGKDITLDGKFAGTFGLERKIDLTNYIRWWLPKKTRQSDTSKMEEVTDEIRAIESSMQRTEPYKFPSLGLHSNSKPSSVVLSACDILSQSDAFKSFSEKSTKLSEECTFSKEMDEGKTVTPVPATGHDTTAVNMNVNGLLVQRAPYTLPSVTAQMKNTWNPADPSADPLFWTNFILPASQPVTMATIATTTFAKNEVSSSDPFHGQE
Assay: microscale thermophoresis (NT.[…])
Type: binding
Conditions: NT-647 NHS-labelled GST-NGR5 10 nM; phosphate buffer with 0.005% Tween-20; 30 min; also seen in lipid-protein overlay

Kd: 1.14 ± 0.6 µM
Substance: phosphatidylinositol 4-phosphate [PI4P]
